{"source": "patent US20150316548A1", "about": "“PROGRANULIN AS MARKER FOR AUTOIMMUNE DISORDERS” (UNIVERSITAET DES SAARLANDES, priority 2012, published 2015)", "key": {"[1]": {"test_system": "hyperphosphorylation of progranulin at Ser81 in lymphoblastoid cell lines (LCL)", "assay": "Kinase inhibitors added to cultured lymphoblastoid cell lines (LCL), progranulin isoforms read by IEF and immunoblot", "type": "cell-based, human", "conditions": "for hyperphosphorylated progranulin isoform in IEF: LCL culture", "procedure": "Lymphoblastoid cell lines (LCLs) were established by infection of PBMCs with EBV as described before.\n(§1) Isoelectric focusing was performed as described before. In short, whole blood cell extracts or extracts of LCLs were washed and treated with lysis buffer (8 M urea, 0.1 M NaH2PO4, 0.01 M Tris HCl, 0.1% NP40). Following to this, isoelectric focusing was performed (pH 3-10, Invitrogen) according to the manufacturer's protocol (1 hour 100 V, 1 hour 200 V, and 30 minutes 500 V). After semi-dry blotting on PVDF membranes (450 mA, 24V, 1 hour), patient's plasma was used for immunodetection of progranulin from whole blood cell lysates and murine anti-FLAG antibody (Sigma) was used at a dilution of 1:2,000 for immunodetection of progranulin from LCL lysates. These LCLs had been previously transfected with FLAG-tagged progranulin in pRTS. The membrane was blocked in TST/milk buffer (10% milk in 10 mM Tris/HCl, pH 7.5, 150 mM NaCl, 0.1% [v/v] Tween 20) overnight, washed, and incubated for 1 hour with plasma in TST or murine anti-FLAG-antibody. After 3 washings in TST, the membranes were incubated for 1 hour at room temperature with PDX-labeled goat anti-human IgG Ab (Dianova) diluted 1:5,000 or PDX-labeled anti-mouse IgG Ab (Biorad) in TST, subsequently washed in TST followed by ECL development. To perform IEF on different cell fractions, PBMCs and granulocytes were isolated by density double gradient centrifugation (Histopaque-1077 and -1119, Sigma). Monocytes, B-cells and T-cells were sorted with CD14, CD19 and CD3. Mucosa cells were obtained by swab from the oral cavities of patients and controls.\nStable transfected lymphoblastoid cell lines were cultured at 2×10e6 cells/ml in the presence of selected inhibitory compounds as indicated to narrow down the number of candidate kinases responsible for hyperphosphorylation at Ser81. […] After 3 days, cells were removed and analyzed by isoelectric focusing (IEF) and immunoblot detection. After the identification of PKC as the responsible kinase for the phosphorylation of serine 81, the same procedure was repeated with other selected inhibitory compounds to identify the subclass of PKC. The selected inhibitory compounds for the identification of the PKC subunit were: Staurosporin at […], 15 nM and 30 nM. Bisindolylmaleimide I (BIM I) at 1 nM, 5 nM, 10 nM and 20 nM, Rottlerin at 5 μM, 10 μM, 40 μM and 100 μM and the PKCβ-inhibitor at a concentration of 5 nm specifically for PKCβ-II and at a concentration of 21 nm for PKCβ-I and PKCβ-II."}, "[2]": {"test_system": "phosphatase for progranulin's phosphorylated Ser81 in LCLs", "assay": "Phosphatase inhibitors added to cultured LCLs, progranulin isoforms read by IEF", "type": "cell-based, human", "from_the_text": "FIG. 14 a) to b): Identification of PP1 as the responsible phosphatase. a) Phosphatase inhibitors at specific concentrations or DMSO only as control were administrated for three days to cultured LCLs derived from a healthy donor and from a patient with hyperphosphorylated progranulin. Subsequently LCL lysates were subjected to IEF. Lanes (1) and (4) show the IEF of the LCL from a healthy control and a progranulin-antibody positive patient cultured without phosphatase inhibitors. […] The further lanes show the administration of following phosphatase inhibitors to LCL-lysates from healthy controls (top) and from progranulin-antibody positive patients (bottom): 1) DMSO, 2) of serine/threonine inhibitor cocktail 1, 3) of NIPP1 at 10 pM, 4) of okadaic acid at 10 nM, 5) of okadaic acid at 0.1 nM and of okadaic acid at 500 nM.\nas §1\nTo identify the responsible phosphatase for progranulin's phosphorylated Ser81 a panel of different phosphatase inhibitors was administered at specific concentrations to the cultured LCLs, which had been obtained from progranulin-antibody positive patients and from healthy controls with the aim to inhibit particular groups of phosphatases. This panel consisted of serine/threonine phosphatase inhibitor cocktail, tyrosine phosphatase inhibitor, okadaic acid at 500 nM, 10 nM, 0.1 nM and NIPP1 at 10 pM. Following to this, IEFs of the lysates of these LCLs were performed to check for possible differences in the phosphorylation state."}, "[3]": {"conditions": "in vivo; cited from earlier work"}, "[4]": {"test_system": "hyperphosphorylated progranulin isoform", "assay": "Treatment of sera / cell lysates with alkaline phosphatase before IEF", "type": "biochemical, human", "conditions": "samples of progranulin-antibody positive patients", "procedure": "Treatment of whole blood cell lysates or LCL lysates with alkaline phosphatase was conducted in principal as previously described. FastAP thermo sensitive alkaline phosphatase (Fermentas) was used. In short LCLs were washed 3 times with PBS. The lysis was performed in a buffer of 10 mM Tris HCl pH 8 for 1 h at 4° C. Following to this the supplied FastAP-Buffer (10×Fast AP-Buffer: 100 mM Tris-HCl, pH 8.0, 50 mM MgCl2, 1 M KCl, 0.2% Triton X-100 and 1 mg/ml BSA) was added to the cell lysate. For 0.1 mg/ml lysed protein extract, 10 units of FastAP were utilized. After 1 h at 37° C., the alkaline phosphatase reaction was stopped by the addition of 50 mM EDTA. Equal volumes of sample and loading buffer were mixed, followed by IEF and immuno-detection."}}, "note": "“Also recorded” adds a separate entry of the source.", "data": [{"molecule": "CN(C)CCCn1cc(C2=C(c3c[nH]c4ccccc34)C(=O)NC2=O)c2ccccc21", "note": "[Bisindolylmaleimide I]", "values": [{"measurement": "hyperphosphorylated progranulin isoform in IEF", "setting": "[1]; inhibitor at 1 nM", "value": "didn't inhibit the hyperphosphorylation"}, {"measurement": "hyperphosphorylated progranulin isoform in IEF", "setting": "[1]; inhibitor at 5 nM", "value": "didn't inhibit the hyperphosphorylation"}, {"measurement": "hyperphosphorylated progranulin isoform in IEF", "setting": "[1]; inhibitor at 10 nM", "value": "didn't inhibit the hyperphosphorylation"}, {"measurement": "hyperphosphorylated progranulin isoform in IEF", "setting": "[1]; inhibitor at 20 nM", "value": "the hyper-phosphorylated isoform disappeared"}, {"measurement": "hyperphosphorylated progranulin isoform in IEF", "setting": "[1]; inhibitor at 20 nM, listed as Bis-indolyl-maleimide I", "value": "led to the disappearance of the hyperphosphorylated isoform"}]}, {"molecule": "O=c1oc2c(O)c(O)cc3c(=O)oc4c(O)c(O)cc1c4c23", "note": "[Ellagic Acid]", "values": [{"measurement": "electrical charge of the normal progranulin isoform in IEF", "setting": "[1]; 10 pM, LCL of progranulin-antibody positive patients and of healthy controls", "value": "slight shift of the band of the normal progranulin isoform towards an electronically less negatively charged isoform"}, {"measurement": "electrical charge of the normal progranulin isoform in IEF", "setting": "[1]; 50 μM, LCL of a healthy control", "value": "change in the electrical charge of “normal” progranulin appeared as well"}, {"measurement": "electrical charge of the normal progranulin isoform in IEF", "setting": "[1]; 50 μM, LCL of a progranulin-antibody positive patient", "value": "change in the electrical charge"}, {"measurement": "hyperphosphorylated progranulin isoform in IEF", "setting": "[1]; inhibitor at 50 μM", "value": "disappearance of the hyperphosphorylated progranulin isoform"}]}, {"molecule": "O=C1NC(=O)C(c2cn(CCCn3ccnc3)c3ccccc23)=C1Nc1ccccc1", "note": "[PKCβ-inhibitor]", "values": [{"measurement": "hyperphosphorylated progranulin isoform in IEF", "setting": "[1]; inhibitor at 21 nM", "value": "led to the disappearance of the hyperphosphorylated isoform"}]}, {"molecule": "CC(=O)c1c(O)c(C)c(O)c(Cc2c(O)c3c(c(C(=O)/C=C/c4ccccc4)c2O)OC(C)(C)C=C3)c1O", "note": "[Rottlerin]", "values": [{"measurement": "hyperphosphorylated progranulin isoform in IEF", "setting": "[1]; inhibitor at 5 μM", "value": "could not inhibit the phosphorylation of Ser81"}, {"measurement": "hyperphosphorylated progranulin isoform in IEF", "setting": "[1]; inhibitor at 10 μM", "value": "could not inhibit the phosphorylation of Ser81"}, {"measurement": "hyperphosphorylated progranulin isoform in IEF", "setting": "[1]; inhibitor at 40 μM", "value": "could not inhibit the phosphorylation of Ser81"}, {"measurement": "hyperphosphorylated progranulin isoform in IEF", "setting": "[1]; inhibitor at 100 μM", "value": "could not inhibit the phosphorylation of Ser81"}, {"measurement": "hyperphosphorylated progranulin isoform in IEF", "setting": "[1]; inhibitor at different concentrations", "value": "not possible to inhibit the responsible kinase"}]}, {"molecule": "CN[C@@H]1C[C@H]2O[C@@](C)([C@@H]1OC)n1c3ccccc3c3c4c(c5c6ccccc6n2c5c31)C(=O)NC4", "note": "[Staurosporin]", "values": [{"measurement": "electrical charge of the normal progranulin isoform in IEF", "setting": "[1]; 2.5 pM, LCL of progranulin-antibody positive patients and of healthy controls", "value": "slight shift of the band of the normal progranulin isoform towards an electronically less negatively charged isoform"}, {"measurement": "electrical charge of the normal progranulin isoform in IEF", "setting": "[1]; 5 pM, LCL of progranulin-antibody positive patients and of healthy controls", "value": "slight shift of the band of the normal progranulin isoform towards an electronically less negatively charged isoform"}, {"measurement": "electrical charge of the normal progranulin isoform in IEF", "setting": "[1]; 2.5 μM, LCL of a healthy control", "value": "change in the electrical charge of “normal” progranulin appeared as well"}, {"measurement": "electrical charge of the normal progranulin isoform in IEF", "setting": "[1]; 2.5 μM, LCL of a progranulin-antibody positive patient", "value": "change in the electrical charge"}, {"measurement": "electrical charge of the normal progranulin isoform in IEF", "setting": "[1]; 5 μM, LCL of a healthy control", "value": "change in the electrical charge of “normal” progranulin appeared as well"}, {"measurement": "electrical charge of the normal progranulin isoform in IEF", "setting": "[1]; 5 μM, LCL of a progranulin-antibody positive patient", "value": "change in the electrical charge"}, {"measurement": "hyperphosphorylated progranulin isoform in IEF", "setting": "[1]; inhibitor at 10 nM", "value": "led only to the disappearance of the hyperphosphorylated progranulin isoform"}, {"measurement": "hyperphosphorylated progranulin isoform in IEF", "setting": "[1]; inhibitor at 15 nM", "value": "wasn't detectable"}, {"measurement": "hyperphosphorylated progranulin isoform in IEF", "setting": "[1]; inhibitor at 30 nM", "value": "wasn't detectable; also recorded: led only to the disappearance of the hyperphosphorylated progranulin isoform"}, {"measurement": "hyperphosphorylated progranulin isoform in IEF", "setting": "[1]; inhibitor at 2.5 μM", "value": "disappearance of the hyperphosphorylated progranulin isoform"}, {"measurement": "hyperphosphorylated progranulin isoform in IEF", "setting": "[1]; inhibitor at 5 μM", "value": "disappearance of the hyperphosphorylated progranulin isoform"}]}, {"molecule": "C=C1[C@@H](O)[C@@H]2O[C@]3(CC[C@H](/C=C/[C@@H](C)[C@@H]4CC(C)=C[C@@]5(O[C@H](C[C@@](C)(O)C(=O)O)CC[C@H]5O)O4)O3)CC[C@H]2O[C@@H]1[C@@H](O)C[C@H](C)[C@H]1O[C@@]2(CCCCO2)CC[C@H]1C", "note": "[okadaic acid]", "values": [{"measurement": "normal and hyperphosphorylated progranulin isoforms in IEF", "setting": "[2]; 0.1 nM (specific for PP2A), listed as ocadaic acid", "value": "didn't change the phosphorylation state"}, {"measurement": "normal and hyperphosphorylated progranulin isoforms in IEF", "setting": "[2]; 10 nM (specific for PP1)", "value": "led to the appearance of the hyperphosphorylated progranulin isoform and the disappearance of the normal progranulin isoform"}, {"measurement": "normal and hyperphosphorylated progranulin isoforms in IEF", "setting": "[2]; 10 nM (specific for PP1), listed as Ocadaic acid", "value": "led to the appearance of the hyperphosphorylated progranulin isoform"}, {"measurement": "normal and hyperphosphorylated progranulin isoforms in IEF", "setting": "[2]; 500 nM (0.5 μM)", "value": "led to the appearance of the hyperphosphorylated progranulin isoform and the disappearance of the normal progranulin isoform"}, {"measurement": "normal and hyperphosphorylated progranulin isoforms in IEF", "setting": "[2]; 500 nM (0.5 μM), listed as Ocadaic acid", "value": "led to the appearance of the hyperphosphorylated progranulin isoform"}]}, {"molecule": "TNF-α", "values": [{"measurement": "half-life", "setting": "[3]", "value": "about 20 min"}]}, {"molecule": "alkaline phosphatase", "values": [{"measurement": "additional (aberrantly charged) progranulin isoform in IEF after pretreatment", "setting": "[4]", "value": "disappearance of the additional progranulin isoform; also recorded: had lost the aberrantly charged progranulin isoform"}]}, {"molecule": "NIPP1: phosphatase inhibitor, at 10 pM specific for PP1 (protein, UniProt Q12972 1-351, looked up) Nuclear inhibitor of protein …: MAAAANSGSSLPLFDCPTWAGKPPPGLHLDVVKGDKLIEKLIIDEKKYYLFGRNPDLCDFTIDHQSCSRVHAALVYHKHLKRVFLIDLNSTHGTFLGHIRLEPHKPQQIPIDSTVSFGASTRAYTLREKPQTLPSAVKGDEKMGGEDDELKGLLGLPEEETELDNLTEFNTAHNKRISTLTIEEGNLDIQRPKRKRKNSRVTFSEDDEIINPEDVDPSVGRFRNMVQTAVVPVKKKRVEGPGSLGLEESGSRRMQNFAFSGGLYGGLPPTHSEAGSQPHGIHGTALIGGLPMPYPNLAPDVDLTPVVPSAVNMNPAPNPAVYNPEAVNEPKKKKYAKEAWPGKKPTPSLLI", "values": [{"measurement": "normal and hyperphosphorylated progranulin isoforms in IEF", "setting": "[2]; 10 pM (specific for PP1)", "value": "led to the appearance of the hyperphosphorylated progranulin isoform and the disappearance of the normal progranulin isoform"}]}]}
